In brackets after ≈: the same amount, converted by molar mass. Like-named read-outs stand apart in the source and are kept apart here.
Assays:
[1] = Second screening: 60 mL of guaco syrup spiked with 100, 500, 1000 or 1500 mg of COU; type: in vivo, human
Procedure: All the volunteers fasted for 8 h prior to the administration of guaco syrup and blood collection. Blood samples (3.0 mL) were collected (using flexible catheter 18–20G) before the syrup administration (zero min) and at fifteen time points after the syrup administration (10, 20, 30, 45, 60, 75, 90, 120, 150, 180, 240, 360, 480, 540 and 600 min). The anticoagulant used was tetrasodium edetate. All the samples were immediately centrifuged at 4000 rpm (5.0 min, room temperature), and the plasma was aliquoted and frozen at -40°C until analysis. The pharmacokinetic analysis was performed using a non-compartmental model, considering an extravascular administration route and using WinNonlin Professional software, version 5.3. The relationships among the areas under the curves (r areas = AUC0-t/AUC0-inf), were used to confirm the suitability of the experimental design. Values greater than 0.8 indicated an appropriate experimental design.

[2] = Stability of stock solutions and working standard solutions; type: physicochemical; details: for Mean recovery: n = 8, ± SD
Procedure: The stability of the stock solutions (1 mg/mL of each analyte and ISs) was evaluated after 30 days of storage in a refrigerator (4°C, amber bottles). The stored solutions were diluted with acetonitrile/water (70:30 v/v) to obtain the same concentration levels as the short-term stability assay. The stability of the stock solutions was evaluated by comparing the mean recovery of the analytes and IS obtained from stored samples to the mean values obtained with freshly prepared samples, at the same concentration levels. The stability of the working standard solutions was assessed using a procedure similar to that described for stock solution stability. […]

guinea pig tracheas = system: guinea pig tracheas; parameters: method as in PMID 16084046; details: cited from earlier work
histamine inhalation = system: histamine inhalation; parameters: method as in PMID 16084046; details: guinea pigs; cited from earlier work
[3] = parameters: method as in PMID 598421; details: cited from earlier work
[4] = system: allergic airway inflammation; parameters: method as in PMID 19289114; details: mice, 60 mg/kg; cited from earlier work
[5] = 8 h at room temperature, high level (Coumarin 1250.0, 7-hydroxycoumarin 750.0, o-coumaric acid 750.0, Kaurenoic acid 500.0 ng/mL)
[6] = 8 h at room temperature, high level, stored vs freshly prepared
[7] = 8 h at room temperature, low level (Coumarin 50.0, 7-hydroxycoumarin 12.5, o-coumaric acid 25.0, Kaurenoic acid 10.0 ng/mL)
[8] = 8 h at room temperature, low level, stored vs freshly prepared
[9] = 30 days at 4 °C (stock solutions), high level (1250.0, 750.0, 750.0, 500.0 ng/mL)
[10] = 30 days at 4 °C (stock solutions), low level (50.0, 12.5, 25.0, 10.0 ng/mL)

time of peak absorption after syrup administration ([1]; all four volunteers, 100, 500, 1000 and 1500 mg COU) | Tmax ([1]; both sexes, human, plasma, oral, read-out: time of peak concentration in plasma) | concentration at 10 min ([1]; human, plasma, oral, 100 mg dosage, 10 min after syrup administration) | Mean recovery [2, 5] | RE [2, 6] | Mean recovery [2, 7] | RE [2, 8] | Mean recovery [2, 9] | Mean recovery [2, 10] | RE ([2]; 30 days at 4 °C, high level) | RE ([2]; 30 days at 4 °C, low level) | Structure (SMILES) | EC50, relaxing effect (guinea pig tracheas; guinea pig tracheas pre-contracted with carbachol) | EC50, relaxing effect (guinea pig tracheas; guinea pig tracheas pre-contracted with histamine) | AD50 (adequate dose protecting 50% of the tested animals) (histamine inhalation) | bioavailability [3] | attenuation of allergic airway inflammation [4]
10 min | 0.75 to 2 h | 22.1 ng/mL | 1293.1 ± 30.5 ng/mL | 3.45% | 54.5 ± 3.2 ng/mL | 8.94% | 1173.4 ± 67.9 ng/mL | 56.1 ± 2.3 ng/mL | -6.13% | 12.27% | O=c1ccc2ccccc2o1 [COU, 1,2 benzopyrone] | 33.4 µg/mL (≈ 229 µM) | 35.0 µg/mL (≈ 239 µM) | 75 mg/kg | 3.4% | –
– | – | – | 718.0 ± 48.0 ng/mL | -4.26% | 22.6 ± 1.3 ng/mL | -9.44% | 640.8 ± 45.6 ng/mL | 22.8 ± 1.2 ng/mL | -14.55% | -8.89% | O=C(O)/C=C/c1ccccc1O [OCA, o-coumaric acid] | – | – | – | – | –
– | – | – | 757.9 ± 5.6 ng/mL | 1.06% | 11.6 ± 0.6 ng/mL | -7.41% | 791.8 ± 60.5 ng/mL | 11.4 ± 0.9 ng/mL | 5.57% | -8.02% | O=c1ccc2ccc(O)cc2o1 [7-HCOU, 7-hydroxycoumarin] | – | – | – | – | significant attenuation

Reference: article PMC4355590, “A Kinetic Study of the Main Guaco Metabolites Using Syrup Formulation and the Identification of an Alternative Route of Coumarin Metabolism in Humans” (PLoS ONE, 2015)
